Measured values as given in ChEMBL document CHEMBL5244202, “Structural evolution of toll-like receptor 7/8 agonists from imidazoquinolines to imidazoles” (RSC Med Chem, 2021).
Blank lines part the entries; values can stand above or below the compound they belong to.

How the values were obtained:
[1] = target: T1, Toll-like receptor 7 (Homo sapiens, UniProt Q9NYK1); assay: Agonist activity at human TLR7 in HEK-Blue hTLR7 cells assessed as activation of NFkappaB by SEAP reporter gene based spectrophotometry assay; assay type: cell-based; settings: hek-blue htlr7
T1 sequence (Q9NYK1 whole entry): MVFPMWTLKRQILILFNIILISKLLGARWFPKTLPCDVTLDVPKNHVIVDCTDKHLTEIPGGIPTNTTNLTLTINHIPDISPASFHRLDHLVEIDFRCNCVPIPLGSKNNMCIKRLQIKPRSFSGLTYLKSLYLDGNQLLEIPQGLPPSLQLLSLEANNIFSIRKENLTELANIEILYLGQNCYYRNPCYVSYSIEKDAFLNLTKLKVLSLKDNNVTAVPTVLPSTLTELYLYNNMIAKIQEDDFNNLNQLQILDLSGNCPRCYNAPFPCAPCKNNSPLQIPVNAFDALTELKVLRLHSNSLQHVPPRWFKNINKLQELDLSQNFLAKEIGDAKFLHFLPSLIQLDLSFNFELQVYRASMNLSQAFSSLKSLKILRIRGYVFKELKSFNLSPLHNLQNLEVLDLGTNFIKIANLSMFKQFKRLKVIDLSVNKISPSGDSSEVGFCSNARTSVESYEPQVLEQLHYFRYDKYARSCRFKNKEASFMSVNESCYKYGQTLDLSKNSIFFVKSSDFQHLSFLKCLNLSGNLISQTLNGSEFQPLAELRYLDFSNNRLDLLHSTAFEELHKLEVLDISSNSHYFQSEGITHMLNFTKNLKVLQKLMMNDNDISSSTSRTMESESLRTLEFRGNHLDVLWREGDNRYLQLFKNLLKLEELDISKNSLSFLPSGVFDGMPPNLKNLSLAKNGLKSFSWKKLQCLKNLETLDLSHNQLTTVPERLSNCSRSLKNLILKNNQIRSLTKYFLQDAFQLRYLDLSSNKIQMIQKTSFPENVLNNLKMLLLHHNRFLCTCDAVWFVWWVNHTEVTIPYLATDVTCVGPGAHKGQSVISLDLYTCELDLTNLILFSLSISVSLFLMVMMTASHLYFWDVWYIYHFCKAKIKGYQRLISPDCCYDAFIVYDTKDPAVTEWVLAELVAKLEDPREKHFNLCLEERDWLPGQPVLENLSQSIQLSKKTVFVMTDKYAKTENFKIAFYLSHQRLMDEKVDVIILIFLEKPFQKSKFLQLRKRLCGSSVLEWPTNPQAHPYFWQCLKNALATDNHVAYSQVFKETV

[2] = target: T2, Toll-like receptor 8 (Homo sapiens, UniProt Q9NR97); assay: Agonist activity at human TLR8 in HEK-Blue hTLR8 cells assessed as activation of NFkappaB by SEAP reporter gene based spectrophotometry assay; assay type: cell-based; settings: hek-blue htlr8
T2 sequence (Q9NR97 whole entry): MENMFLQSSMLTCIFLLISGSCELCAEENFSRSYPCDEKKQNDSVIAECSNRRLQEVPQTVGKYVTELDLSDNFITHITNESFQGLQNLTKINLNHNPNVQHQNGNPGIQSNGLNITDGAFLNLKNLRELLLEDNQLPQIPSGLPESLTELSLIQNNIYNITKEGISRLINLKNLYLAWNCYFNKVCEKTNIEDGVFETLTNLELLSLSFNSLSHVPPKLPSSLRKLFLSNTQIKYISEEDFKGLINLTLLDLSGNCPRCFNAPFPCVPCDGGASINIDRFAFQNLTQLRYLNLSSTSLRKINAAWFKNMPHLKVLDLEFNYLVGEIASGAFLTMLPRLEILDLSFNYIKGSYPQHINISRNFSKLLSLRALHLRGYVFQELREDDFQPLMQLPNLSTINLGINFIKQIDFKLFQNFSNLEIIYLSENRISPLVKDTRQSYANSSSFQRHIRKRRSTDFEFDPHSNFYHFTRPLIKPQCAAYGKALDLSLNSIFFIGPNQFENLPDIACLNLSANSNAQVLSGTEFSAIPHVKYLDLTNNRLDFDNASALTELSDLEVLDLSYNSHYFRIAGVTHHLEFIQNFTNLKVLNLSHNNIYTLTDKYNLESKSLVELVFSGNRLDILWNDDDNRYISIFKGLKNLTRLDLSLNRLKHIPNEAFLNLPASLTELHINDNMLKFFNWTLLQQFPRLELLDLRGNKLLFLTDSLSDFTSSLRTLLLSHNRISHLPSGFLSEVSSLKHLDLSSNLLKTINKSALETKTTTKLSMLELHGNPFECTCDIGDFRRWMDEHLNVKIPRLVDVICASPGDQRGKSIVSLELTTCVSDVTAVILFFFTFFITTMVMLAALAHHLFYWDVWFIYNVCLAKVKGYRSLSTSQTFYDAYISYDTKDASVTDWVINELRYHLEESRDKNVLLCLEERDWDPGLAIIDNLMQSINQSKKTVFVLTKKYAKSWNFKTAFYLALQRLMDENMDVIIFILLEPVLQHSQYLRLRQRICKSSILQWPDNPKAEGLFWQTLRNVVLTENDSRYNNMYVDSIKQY

[3] = target: T1, Toll-like receptor 7; assay: Agonist activity at TLR7 (unknown origin)
[4] = Induction of IFN production in C3H/HeJ mouse splenocytes incubated for 18 hrs; assay type: functional; settings: Splenocyte, read-out: MEC
[5] = target: T1, Toll-like receptor 7; assay: Agonist activity at recombinant human TLR7 transfected in HEK293 cells assessed as induction of SEAP production incubated overnight by SEAP reporter gene based assay; assay type: cell-based
[6] = target: T2, Toll-like receptor 8; assay: Agonist activity at human TLR8 transfected in HEK293 cells assessed as induction of SEAP production incubated overnight; assay type: cell-based
[7] = target: T1, Toll-like receptor 7; assay: Agonist activity at human TLR7 transfected in HEK293 cells assessed as induction of SEAP production incubated overnight by SEAP reporter gene based assay; assay type: cell-based
[8] = target: T2, Toll-like receptor 8; assay: Agonist activity at TLR8 (unknown origin)

Compound: Nc1nc2ccccc2c2sc(CCC(F)(F)F)nc12
EC50 [1]: 3630 nM | EC50 [2]: 1610 nM

Compound: CCCCNc1nc(N)nnc1OCc1ccccc1F
EC50 [3]: 750 nM

Compound: CCCCNc1nc(N)nnc1OCc1cccnc1
EC50 [3]: 1710 nM

Compound: CCCC[C@H](CCO)Nc1nc(N)nnc1OC
EC50 [3]: 7800 nM

Compound: CCCCSc1nc(N)c2nc(O)n(Cc3ccccc3)c2n1
minimal effective concentration [4]: 0.01 µM

Compound: CCCCNc1nc(N)nnc1OC(C)C
EC50 [3]: 8270 nM

Compound: CC[C@H](C)Cc1nc2c(N)nc3ccccc3c2s1
EC50 [1]: 4740 nM | EC50 [2]: 2510 nM

Compound: CCC[C@@H](CCO)Nc1nc(N)nc(C)c1Cc1ccc(CNCCO)cc1OC
EC50 [5]: 9.77 nM | EC50 [6]: > 10000 nM

Compound: CCCCc1nc(N)c2nc(O)n(Cc3ccccc3)c2n1
minimal effective concentration [4]: 0.03 µM

Compound: CCC[C@@H](CCO)Nc1nc(N)nc(C)c1Cc1ccc(CNCC(N)=O)cc1OC
EC50 [5]: 44.7 nM | EC50 [6]: > 10000 nM

Compound: CCC[C@@H](CCO)Nc1nc(N)nc(C)c1Cc1ccc(CNC2CN(C)C2)cc1OC
EC50 [5]: 19.1 nM | EC50 [6]: > 10000 nM

Compound: CCOC(=O)COc1ccc(CN(CCCn2c(CCOC)nc3c(N)nc4ccccc4c32)C(=O)CN(C)C)cc1
EC50 [7]: 172 nM

Compound: CCC[C@@H](CCO)Nc1nc(N)nc(C)c1Cc1ccc(CN(C)CC(N)=O)cc1OC
EC50 [5]: 55 nM | EC50 [6]: > 10000 nM

Compound: CCC[C@@H](CCO)Nc1nc(N)nc(C)c1Cc1ccc(CNC)cc1OC
EC50 [5]: 3.02 nM | EC50 [6]: 6460 nM

Compound: CCC[C@@H](CCO)Nc1nc(N)nc(C)c1Cc1ccc(CNC2CNC2)cc1OC
EC50 [5]: 19.5 nM | EC50 [6]: > 10000 nM

Compound: Nc1nc2ccccc2c2sc(CCCC(F)(F)F)nc12
EC50 [1]: 2250 nM | EC50 [2]: 6290 nM

Compound: CCOC(=O)COc1ccc(CN(CCCn2c(CCOC)nc3c(N)nc4ccccc4c32)C(=O)CN2CCCC2)cc1
EC50 [7]: 150 nM

Compound: CCCCc1nc2c(NC(=O)CCC)nc3ccccc3c2s1
EC50 [1]: 490 nM | EC50 [2]: 420 nM

Compound: CCCCNc1nc(N)c2nc(O)n(Cc3ccccc3)c2n1
minimal effective concentration [4]: 0.1 µM

Compound: CCCCOc1nc(N)c2[nH]cc(Cc3ccc(CN4CCCC4)cc3)c2n1
EC50 [3]: 100 nM

Compound: CCCc1nc2c(N)nc3ccc(N=[N+]=[N-])cc3c2s1
EC50 [1]: 10200 nM | EC50 [2]: 2060 nM

Compound: CCCCOc1nc(N)c2[nH]c(C#N)c(Cc3ccc(CN4CCCC4)nc3)c2n1
EC50 [3]: 1 nM

Compound: CC(C)Cc1nc2c(N)nc3ccccc3c2s1
EC50 [1]: 6960 nM | EC50 [2]: 1550 nM

Compound: CCC[C@@H](CO)Nc1nc(N)nc(C)c1Cc1ccc(CNC2CN(C)C2)cc1OC
EC50 [5]: 155 nM | EC50 [6]: 6170 nM

Now from value to compound:

EC50 [1]: 4140 nM | EC50 [2]: 1940 nM
Compound: CCCCCc1nc2c(N)nc3ccccc3c2s1

EC50 [5]: 81.3 nM | EC50 [6]: > 10000 nM
Compound: CCC[C@@H](CCO)Nc1nc(N)nc(C)c1Cc1ccc(CNCCC(N)=O)cc1OC

EC50 [3]: 2940 nM
Compound: CCCCNc1nc(N)nnc1OCCCc1ccccc1

EC50 [1]: 3530 nM | EC50 [2]: 1200 nM
Compound: CCCc1nc2c(NC(=O)CN=[N+]=[N-])nc3ccccc3c2s1

EC50 [7]: 54.6 nM
Compound: CCOC(=O)COc1cccc(CN(CCCn2c(CCOC)nc3c(N)nc4ccccc4c32)C(=O)CN(CC)CC)c1

EC50 [1]: 5120 nM | EC50 [2]: 810 nM
Compound: CCc1nc2c(N)nc3ccccc3c2s1

EC50 [3]: 170 nM
Compound: CCCCNc1nc(N)nnc1OCc1ccccn1

EC50 [5]: 63.1 nM | EC50 [6]: 5250 nM
Compound: CCC[C@@H](CO)Nc1nc(N)nc(C)c1Cc1ccc(CN2CCNCC2)cc1OC

EC50 [7]: 56.4 nM
Compound: COCCc1nc2c(N)nc3ccccc3c2n1CCCCN(CCN(C)C)Cc1cccc(OCC(=O)OC(C)(C)C)c1

EC50 [3]: 17500 nM
Compound: CCCCNc1nc(N)nnc1OC

EC50 [3]: 4750 nM | EC50 [8]: 1000 nM
Compound: CCCCNc1nc(N)nnc1OCCOC

EC50 [3]: 2940 nM | EC50 [8]: 1930 nM
Compound: CCCCNc1nc(N)nnc1OCc1ccccc1

EC50 [8]: 640 nM
Compound: CCCCNc1nc(N)nnc1OCc1ccccc1OC

EC50 [3]: 240 nM | EC50 [8]: 560 nM
Compound: CCC[C@H](CCO)Nc1nc(N)nnc1OCc1nccc(OC)c1OC

EC50 [7]: 114 nM
Compound: COCCc1nc2c(N)nc3ccccc3c2n1CCCCN(CCCN1CCOCC1)Cc1cccc(OCC(=O)OC(C)(C)C)c1

EC50 [3]: > 25000 nM | EC50 [8]: 100 nM
Compound: CCCCNc1nc(N)nnc1OCCCN(C)C

EC50 [1]: 9670 nM | EC50 [2]: 10800 nM
Compound: CC(C)c1nc2c(N)nc3ccccc3c2s1
